Results as given in article PMC8325347, “Evolution of a σ–(c-di-GMP)–anti-σ switch” (Proceedings of the National Academy of Sciences of the …, 2021).

How the values were obtained:
[1] = target: RsiG from Rubrobacter radiotolerans (RsiGRr), co-purified with WhiGRr, His-tag cleaved (Rubrobacter radiotolerans); experiment: crystal structure; Rr (RsiG)2-(c-di-GMP)2-WhiG complex, 2.93 Å; 0.1 M Tris pH 8.0, 0.2 M MgCl2, 23% PEG 3350; c-di-GMP copurified from E. coli, none added
RsiGCw = target: T1, RsiGCw (Conexibacter woesei, UniProt D3EZE5); experiment: fluorescence polarization; assay type: binding; details: 25 mM Tris-HCl pH 7.5, 150 mM NaCl, 25 °C, 1 nM probe; RsiG alone; labelled compound
T1 construct: gene Cwoe_3492; full-length single-motif RsiG; pET15b, E. coli C41(DE3), His-tag cut with thrombin; homodimer (two-hybrid)
T1 sequence (D3EZE5 1-84): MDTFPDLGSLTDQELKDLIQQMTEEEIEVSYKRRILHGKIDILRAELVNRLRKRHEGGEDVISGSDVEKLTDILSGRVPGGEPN

RsiGCw+WhiGCw = target: T2, RsiGCw+WhiGCw (Conexibacter woesei, UniProt D3EZE5); experiment: fluorescence polarization; assay type: binding; details: 25 mM Tris-HCl pH 7.5, 150 mM NaCl, 25 °C, 1 nM probe; RsiG with WhiG; labelled compound
T2 construct: gene Cwoe_3492; RsiG and WhiG coexpressed from pCOLADuet-1 in E. coli C41(DE3), His-tag on RsiG cut with thrombin; stoichiometry by analogy with the R. radiotolerans complex
T2 sequence (D3EZE5 1-84): T1 sequence (D3EZE5 1-84)
T2 sequence (UPI0011D1D740 1-268 partner): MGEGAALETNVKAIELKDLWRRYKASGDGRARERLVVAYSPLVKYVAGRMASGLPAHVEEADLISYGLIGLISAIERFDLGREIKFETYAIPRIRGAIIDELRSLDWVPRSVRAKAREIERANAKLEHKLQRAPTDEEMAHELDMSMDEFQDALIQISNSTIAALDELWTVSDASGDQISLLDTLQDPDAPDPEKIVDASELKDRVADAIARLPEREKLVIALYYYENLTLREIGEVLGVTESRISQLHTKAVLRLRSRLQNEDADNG

RsiGRr = target: T3, RsiGRr (Rubrobacter radiotolerans, UniProt Z9BF25KB68); experiment: fluorescence polarization; assay type: binding; details: 25 mM Tris-HCl pH 7.5, 150 mM NaCl, 25 °C, 1 nM probe; RsiG alone; labelled compound
T3 construct: full-length single-motif RsiG, 118 residues (a 27-106 construct was made for apo crystals only); pET15b, E. coli C41(DE3), His-tag cut with thrombin; homodimer
T3 sequence (Z9BF25KB68 1-118): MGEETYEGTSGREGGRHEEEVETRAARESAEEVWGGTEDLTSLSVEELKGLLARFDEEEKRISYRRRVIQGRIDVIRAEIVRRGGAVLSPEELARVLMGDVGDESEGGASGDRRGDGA

[2] = target: T4, RsiGRr+WhiGRr; Rr (RsiG)2–(c-di-GMP)2–WhiG complex (Rubrobacter radiotolerans, UniProt A0A023X3C8+Z9BF25KB68); experiment: fluorescence polarization; assay type: binding; details: 25 mM Tris-HCl pH 7.5, 150 mM NaCl, 25 °C, 1 nM probe; RsiG with WhiG; labelled compound
T4 construct: RsiG and WhiG coexpressed from pCOLADuet-1 in E. coli C41(DE3), His-tag on RsiG cut with thrombin; complex of RsiG homodimer and one WhiG
T4 sequence (Z9BF25KB68 1-118): T3 sequence (Z9BF25KB68 1-118)
T4 sequence (A0A023X3C8 1-273): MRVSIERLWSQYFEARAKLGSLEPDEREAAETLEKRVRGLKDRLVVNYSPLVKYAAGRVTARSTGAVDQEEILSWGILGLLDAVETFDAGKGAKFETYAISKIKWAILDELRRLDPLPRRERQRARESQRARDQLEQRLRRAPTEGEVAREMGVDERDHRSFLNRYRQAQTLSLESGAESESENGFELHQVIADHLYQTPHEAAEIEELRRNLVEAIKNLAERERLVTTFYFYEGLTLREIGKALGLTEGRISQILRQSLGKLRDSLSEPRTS

[3] = target: RsiGRr(27-106) (L52M-I69M), selenomethionine substituted (Rubrobacter radiotolerans); experiment: crystal structure; apo RsiGRr crystal form 1; 0.1 M imidazole pH 8.0, 12% isopropyl alcohol, 0.1 M MgCl2; selenomethionine SAD, 1.86 Å; six molecules in the ASU forming three dimers
[4] = target: RsiGRr(27-106) (Rubrobacter radiotolerans); experiment: crystal structure; apo RsiGRr crystal form 2; 0.1 sodium acetate pH 4.5, 2.5 M NaCl, 0.2 M lithium sulfate, 0.1 M MgCl2; molecular replacement, 2.55 Å

Substance “RsiG from Rubrobacter radiotolerans (RsiGRr), co-purified with WhiGRr, His-tag cleaved (natural protein)” has a stoichiometry N [1] of 2.

With “2′-O-(6-[Fluoresceinyl]aminohexylcarbamoyl)-cyclic diguanosine monophosphate [2′-Fluo-AHC–c-di-GMP]” the Kd (RsiGCw) was 25 ± 2 µM, the Kd (RsiGCw+WhiGCw) was 1.7 ± 0.3 µM and the Kd (RsiGRr) was 12 ± 3 µM. The Kd [2] was 0.9 ± 0.05 µM.

“RsiGRr(27-106) (L52M-I69M), selenomethionine substituted (domain or fragment)” showed a stoichiometry N [3] of 2.

In the case of RsiGRr(27-106) (domain or fragment), the stoichiometry N [4] is reported as 2.
